Experimental data from patent US6583299B1, “α-amino-β-sulfonyl hydroxamic acid compounds” (priority 1999, dated 2003).

Legend:
MMP-1 = target: T1, MMP-1 (Homo sapiens, UniProt P03956); test: In vitro metalloprotease inhibition, fluorogenic MCA peptide substrate; type: biochemical; details: recombinant human enzyme, APMA-activated, room temperature, pH 7.5
T1 construct: host or cells: transfected HT-1080 cells
T1 sequence (P03956 100-469): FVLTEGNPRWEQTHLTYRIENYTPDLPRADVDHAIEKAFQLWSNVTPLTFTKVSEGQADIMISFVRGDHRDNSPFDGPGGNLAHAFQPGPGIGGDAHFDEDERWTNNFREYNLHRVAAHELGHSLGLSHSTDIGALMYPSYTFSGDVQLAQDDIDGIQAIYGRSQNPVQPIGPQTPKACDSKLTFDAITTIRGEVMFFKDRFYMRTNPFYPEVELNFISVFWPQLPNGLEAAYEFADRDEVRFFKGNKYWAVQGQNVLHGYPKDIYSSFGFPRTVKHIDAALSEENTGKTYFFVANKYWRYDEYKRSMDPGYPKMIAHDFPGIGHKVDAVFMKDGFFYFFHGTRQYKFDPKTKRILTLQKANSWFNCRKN

MMP-13 = target: T2, MMP-13 (Homo sapiens, UniProt P45452); test: as above; type: biochemical; details: recombinant human enzyme, APMA-activated, room temperature, pH 7.5; read-out: MMP-13 IC50
T2 construct: made in house; host or cells: baculovirus / insect cells

[1] = test system: human moncytic line U-937; test: Tumor necrosis factor assay: PMA-stimulated TNF release, TNFα ELISA; type: cell-based; details: U-937 cells; for inhibition at 10 µM: compound at 10 μM, read-out: Per Cent Inhibition of TNF? Release [average]
Method: The cells used in the assay are the human moncytic line U-937 (ATCC CRL-1593). The cells are grown RPMI w/10% FCS and PSG supplement (R-10) and are not permitted to overgrow. The assay is carried out as follows:
1. Count, then harvest cells by centrifugation. Resuspend the pellet in R-10 supplement to a concentration of 1.540×10^6 cells/mL.
2. Add test compound in 65 μL R-10 to the appropriate wells of a 96-well flat bottom tissue culture plate. The initial dilution from a DMSO stock (100 mM compound) provides a 400 μM solution, from which five additional three-fold serial dilutions are made.
3. The counted, washed and resuspended cells (200,000 cells/well) in 130 μL are added to the wells.
4. Incubation is for 45 minutes to one hour at 37° C. in 5% CO2 in a water saturated container.
5. R-10 (65 μL)containing 160 ng/mL PMA (Sigma) is added to each well. 6. The test system is incubated at 37° C. in 5% CO2 overnight (18-20 hours) under 100% humidity.
7. Supernatant, 150 μL, is carefully removed from each well for use in the ELISA assay.
Coat Immulon® 2 plates with 0.1 mL/well of 1 ug/mL Genzyme mAb in 0.1 M NaHCO3 pH 8.0 buffer overnight (about 18-20 hours) at 4° C., wrapped tightly in Saran® wrap.
Wash wells thoroughly 4× with wash buffer and completely remove all wash buffer. Add 0.1 mL/well of either samples or rhTNFα standards. Dilute samples if necessary in appropriate diluent (e.g. tissue culture medium). Dilute standard in same diluent. Standards and samples should be in triplicates.
Wash plates as above. Add 0.1 mL/well of 1:200 dilution of Genzyme rabbit anti-hTNFα.
Repeat wash. Add 0.1 mL/well of 1 μg/mL Jackson goat anti-rabbit IgG (H+L)-peroxidase.
Repeat wash. Add 0.1 mL/well of peroxide-ABTS solution.

MMP-2 = target: T3, MMP-2 (Homo sapiens, UniProt P08253); test: In vitro metalloprotease inhibition, fluorogenic MCA peptide substrate; type: biochemical; details: room temperature, pH 7.5
T3 sequence (P08253 110-660): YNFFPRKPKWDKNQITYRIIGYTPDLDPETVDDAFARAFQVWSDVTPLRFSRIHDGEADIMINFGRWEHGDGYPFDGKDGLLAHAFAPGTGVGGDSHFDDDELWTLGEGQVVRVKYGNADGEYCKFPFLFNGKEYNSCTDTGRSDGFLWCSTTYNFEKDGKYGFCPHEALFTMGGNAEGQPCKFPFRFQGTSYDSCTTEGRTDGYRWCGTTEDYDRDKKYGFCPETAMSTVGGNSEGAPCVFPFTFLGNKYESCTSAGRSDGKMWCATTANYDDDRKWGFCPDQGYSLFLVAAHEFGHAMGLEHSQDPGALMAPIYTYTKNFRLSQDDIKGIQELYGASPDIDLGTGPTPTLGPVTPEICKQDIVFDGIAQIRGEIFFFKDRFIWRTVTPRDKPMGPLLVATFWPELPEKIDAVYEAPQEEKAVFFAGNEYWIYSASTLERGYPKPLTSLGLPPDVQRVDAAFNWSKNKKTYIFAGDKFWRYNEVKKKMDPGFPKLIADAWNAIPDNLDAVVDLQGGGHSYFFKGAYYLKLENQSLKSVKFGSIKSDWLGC

[2] = test system: solid tumor cancers (colorectal, pancreatic, ovarian, prostate); details: cited from earlier work

IC50 (MMP-1) [nM]	IC50 (MMP-13) [nM]	IC50 (MMP-2) [nM]	Compound	inhibition at 10 µM [1] [%]	IC50 [1] [nM]	Most common drug-related toxicity ([2]; clinical trials, Phase I/II)	Effect on cancer-specific antigens used as surrogate markers for biological activity ([2]; patients with advanced, rapidly progressive, treatment-refractory solid tumor cancers)
2000	25	–	COc1ccc(S(=O)(=O)CC(NC(=O)c2ccccc2)C(=O)NO)cc1 (stereo not shown) [Example 3, N-Hydroxy-3-[(4-methoxyphenyl)sulfonyl]-2-[(phenylcarbonyl)amino]propanamide]	3.72	–	–	–
400	3.5	–	CCCCC(=O)NC(CS(=O)(=O)c1ccc(OC)cc1)C(=O)NO (stereo not shown) [Example 4, N-Hydroxy-3-[(4-methoxyphenyl)sulfonyl]-2-[(butylcarbonyl)amino]propanamide]	-3.8	> 50000	–	–
100	200	–	CC(=O)NC(CS(=O)(=O)c1ccc(Br)cc1)C(=O)NO (stereo not shown) [Example 5, N-Hydroxy-3-[(4-bromophenyl)sulfonyl]-2-[(methylcarbonyl)amino]propanamide]	-10.8	> 50000	–	–
200	2.5	–	COc1ccc(S(=O)(=O)CC(NC(=O)CCC(=O)OCc2ccccc2)C(=O)NO)cc1 (stereo not shown) [Example 7]	–	> 50000	–	–
600	60	–	COc1ccc(S(=O)(=O)CC(NC(=O)CCC(=O)O)C(=O)NO)cc1 (stereo not shown) [Example 8]	–	> 50000	–	–
250	15	–	COc1ccc(S(=O)(=O)CC(N)C(=O)NO)cc1 (stereo not shown) [Example 22]	–	> 29000	–	–
> 10000	1500	–	COc1ccc(S(=O)(=O)CC(NC(C)=O)C(=O)NO)cc1OC (stereo not shown) [Example 23]	–	> 50000	–	–
5200	650	–	COc1ccc(S(=O)(=O)CC(NC(C)=O)C(=O)NO)cc1 (stereo not shown) [Example 24]	–	> 50000	–	–
1	1	–	COc1ccc(S(=O)(=O)CC(NC(=O)[C@@H](C)NC(=O)OCc2ccccc2)C(=O)NO)cc1 (stereo partly shown) [Example 25]	–	14000	–	–
316	0.3	0.3	O=C(N[C@@H](CS(=O)(=O)c1ccc(Oc2ccccc2)cc1)C(=O)NO)c1ccnc2ccccc12 [Example 50]	–	–	–	–
295	0.4	0.3	O=C(N[C@@H](CS(=O)(=O)c1ccc(Oc2ccccc2)cc1)C(=O)NO)c1ccnc2ccccc12 [Example 51]	–	–	–	–
8100	2.1	0.3	CCN(CC)c1ccc(C(=O)N[C@@H](CS(=O)(=O)c2ccc(Oc3ccccc3)cc2)C(=O)NO)cc1 [Example 53]	–	–	–	–
345	0.3	0.2	O=C(NO)[C@H](CS(=O)(=O)c1ccc(Oc2ccccc2)cc1)N1CCCCC1 [Example 54]	–	–	–	–
580	0.8	0.4	CC(=O)N1CCC(C(=O)NC(CS(=O)(=O)c2ccc(Oc3ccccc3)cc2)C(=O)NO)CC1 (stereo not shown) [Example 59]	–	–	–	–
440	0.4	0.3	N[C@H](CNO)CS(=O)(=O)c1ccc(Oc2ccccc2)cc1 [Example 60]	–	–	–	–
> 10000	60	1.1	CC(N)(CS(=O)(=O)c1ccc(NC(=O)c2ccccc2)cc1)C(=O)NO (stereo not shown) [Example 61]	–	–	–	–
72.3	1200	23.9	CC(C)(C)OC(=O)NC(C)(CS(=O)(=O)c1ccc(NC(=O)c2ccccc2)cc1)C(=O)NO (stereo not shown) [Example 62]	–	–	–	–
3050	21.5	1	CN(C(=O)OC(C)(C)C)C(C)(CS(=O)(=O)c1ccc(NC(=O)c2ccccc2)cc1)C(=O)NO (stereo not shown) [Example 63]	–	–	–	–
7000	8.1	0.4	CNC(CS(=O)(=O)c1ccc(NC(=O)c2ccccc2)cc1)C(=O)NO (stereo not shown) [Example 64]	–	–	–	–
–	–	–	CNC(=O)[C@@H](NC(=O)[C@H](CC(C)C)[C@H](O)C(=O)NO)C(C)(C)C [marimastat]	–	–	musculoskeletal pain and stiffness	dose-related reduction in the rise of cancer-specific antigens
